Earlier results on one substance are cited in article PMC7821949 (Biomolecules, 2020).

This series has as its system α-Bgt.

Regarding “HAP: Combinatorial high-affinity peptide HAP. (WRYYESSLLPYPD)”, the “affinity for α-Bgt” value was 2 to 4 nM.
